Laboratory results taken from patent US8906917B2, “Pyrimidine cyclohexyl glucocorticoid receptor modulators” (Corcept Therapeutics, Inc., priority 2011, dated 2014).
pKi: −log10 of the molar value.

How the values were obtained:
[1] = target: T1, glucocorticoid receptors (endogenous) in SW1353/MMTV-5 cells (Homo sapiens, UniProt P04150); experiment: GR functional assay using SW1353/MMTV-5 cells (MMTV-GRE luciferase reporter); type: cell-based
T1 construct: contains endogenous glucocorticoid receptors; endogenous in cells; host or cells: SW1353/MMTV-5 (human chondrosarcoma, stably transfected with pMAMneo-Luc reporter)
T1 sequence (P04150 1-777): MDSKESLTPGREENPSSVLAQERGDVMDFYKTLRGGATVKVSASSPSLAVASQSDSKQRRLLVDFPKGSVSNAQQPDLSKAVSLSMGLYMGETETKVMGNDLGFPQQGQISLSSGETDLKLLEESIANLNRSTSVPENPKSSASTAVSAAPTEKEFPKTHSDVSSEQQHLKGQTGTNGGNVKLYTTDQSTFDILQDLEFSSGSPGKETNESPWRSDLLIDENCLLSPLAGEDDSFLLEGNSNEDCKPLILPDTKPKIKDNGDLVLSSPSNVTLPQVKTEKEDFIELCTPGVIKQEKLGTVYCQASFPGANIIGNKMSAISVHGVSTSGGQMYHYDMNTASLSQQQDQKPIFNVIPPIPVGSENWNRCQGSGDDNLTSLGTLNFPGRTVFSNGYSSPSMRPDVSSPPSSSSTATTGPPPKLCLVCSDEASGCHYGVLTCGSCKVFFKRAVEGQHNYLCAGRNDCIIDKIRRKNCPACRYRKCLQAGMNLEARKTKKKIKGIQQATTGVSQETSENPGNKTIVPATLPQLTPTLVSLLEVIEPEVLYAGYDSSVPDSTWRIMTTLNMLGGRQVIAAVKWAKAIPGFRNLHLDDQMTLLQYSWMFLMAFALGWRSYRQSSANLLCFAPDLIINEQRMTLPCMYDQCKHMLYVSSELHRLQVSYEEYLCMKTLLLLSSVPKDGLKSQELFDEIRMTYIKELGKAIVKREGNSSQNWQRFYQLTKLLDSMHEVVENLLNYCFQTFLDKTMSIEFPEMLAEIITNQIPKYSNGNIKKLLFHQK
Procedure: SW1353/MMTV-5 is an adherent human chondrosarcoma cell line that contains endogenous glucocorticoid receptors. It was transacted with a plasmid (pMAMneo-Luc) encoding firefly luciferase located behind a glucocorticoid-responsive element (GRE) derived from a viral promoter (long terminal repeat of mouse mammary tumor virus). A stable cell line SW1353/MMTV-5 was selected with geneticin, which was required to maintain this plasmid.
SW1353/MMTV-5 cells were distributed in 96-well plates and incubated in medium (without geneticin) for 24 hrs.

[2] = target: T2, Human Recombinant Glucocorticoid Receptor (Homo sapiens, UniProt P04150); experiment: Glucocorticoid receptor binding displacement assay with 3H-dexamethasone; details: displacement of 2.5 nM 3H-dexamethasone, 2.5 hrs at 4° C.; Ki from IC50 by Cheng-Prusoff; read-out: GR Binding Ki
T2 construct: This GR was a full-length steroid hormone receptor; host or cells: recombinant baculovirus-infected insect cells
T2 sequence (P04150 1-777): T1 sequence (P04150 1-777)
Procedure: Binding protocol: Compounds were tested in a binding displacement assay using human recombinant glucocorticoid receptor with ^3H-dexamethasone as the ligand. The source of the receptor was recombinant baculovirus-infected insect cells. This GR was a full-length steroid hormone receptor likely to be associated with heat-shock and other endogenous proteins.
For the IC50 determinations, test compounds were tested at 6 concentrations in duplicate. Test compounds were diluted from 10 mM stock in 100% DMSO. The tested solutions were prepared at 2× final assay concentration in 2% DMSO/assay buffer.
All reagents and the assay plate were kept on ice during the addition of reagents. The reagents were added to wells of a v-bottomed polypropylene plate in the following order: 25 μl of 10 nM 3H-dexamethasone solution, 50 μl of TB/NSB/compound solution and 25 μl of 2 nM GR solution. After the additions, the incubation mixture was mixed and incubated for 2.5 hrs at 4° C.
Alter 2.5 hrs incubation, unbound counts were removed with dextran coated charcoal (DCC) as follows: 15 μl of DCC solution (10% DCC in assay buffer) was added to all wells and mixed (total volume 115 μl). The plate was centrifuged at 4000 rpm for 10 minutes at 4° C. 75 μl of the supernatants was carefully pipetted into an optiplate. 150 μl of scintillation cocktail were added (Microscint-40, Perkin Elmer). The plate was vigorously shaken for approx. 10 minutes and counted on Topcount.
The IC50 values were converted to Ki (the inhibition constant) using the Cheng-Prusoff equation.
Reagents: Assay buffer: 10 mM potassium phosphate buffer pH 7.6 containing 5 mM DTT, 10 mM sodium molybdate, 100 μM EDTA and 0.1% BSA.

`O=c1[nH]c([C@H]2CC[C@H](c3ccccc3)CC2)c(Cc2cccc(Cl)c2Cl)c(=O)n1CCCN1CCOCC1` [Compound 13c] gave a pKi [1] of under 7.00 and a pKi [2] of under 8.00.
In the case of `O=c1[nH]c(=O)c(Cc2ccc(F)cc2Cl)c([C@H]2CC[C@H](c3ccccc3)CC2)[nH]1` [Compound 3x], the pKi [1] was over 7.30 and the pKi [2] was under 8.00.
